Results on one molecule are retold here after patent US7951530B2, “Cyclic maltosylmaltose, cyclic maltosymaltose-forming enzyme, their preparation and uses” (Kabushiki Kaisha Hayashibara Seibutsu Kagaku Kenkyujo, priority 2003, dated 2011).

The target of this series is T1, Salivary α-amylase (Homo sapiens, UniProt P0DUB6).
T1 sequence (P0DUB6 16-511): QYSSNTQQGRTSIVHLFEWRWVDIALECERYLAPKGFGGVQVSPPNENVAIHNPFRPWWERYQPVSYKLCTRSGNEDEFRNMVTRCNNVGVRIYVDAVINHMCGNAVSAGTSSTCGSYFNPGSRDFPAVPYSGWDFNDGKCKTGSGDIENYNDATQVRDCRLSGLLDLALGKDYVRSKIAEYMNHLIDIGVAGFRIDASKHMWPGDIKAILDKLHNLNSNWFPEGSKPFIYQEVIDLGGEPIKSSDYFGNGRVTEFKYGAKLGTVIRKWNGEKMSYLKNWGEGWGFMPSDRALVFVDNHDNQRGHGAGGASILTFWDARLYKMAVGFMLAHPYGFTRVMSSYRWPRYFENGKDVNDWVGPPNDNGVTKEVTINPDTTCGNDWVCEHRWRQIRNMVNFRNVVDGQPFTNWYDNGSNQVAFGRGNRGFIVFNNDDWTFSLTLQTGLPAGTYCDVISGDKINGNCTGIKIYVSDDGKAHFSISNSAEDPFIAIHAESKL
Text: 43, 23-29 (1990), the digestibility of CMM by salivary α-amylase, artificial gastric juice, pancreas amylase, and small intestinal enzymes were investigated using the powdery hydrous crystalline CMM, obtained by the method in Experiment 14.

In the case of `OC[C@H]1O[C@@H]2OC[C@H]3O[C@H](O[C@H]4[C@H](O)[C@@H](O)[C@@H](OC[C@H]5O[C@H](O[C@H]1[C@H](O)[C@H]2O)[C@H](O)[C@@H](O)[C@@H]5O)O[C@@H]4CO)[C@H](O)[C@@H](O)[C@@H]3O` [CMM, cyclo{>6)-α-D-glucopyranosyl-(1>4)-α-D-glucopyranosyl-(1>6)-α-D-glucopyranosyl-(1>4)-α-D-glucopyranosyl-(1>}], the “Degradation rate (%)” value was determined as 0%.
